Converted amounts (≈) assume the structure as drawn. Like-named read-outs stand apart in the source and are kept apart here.
Legend:
HIV-1 (RF) in MT-2 cells = assay: microbe, parasite or virus in culture; assay type: cell-based
How it was run: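 HIV-1 laboratory strains (RF, MN, IIIB) grown in H9 cells in RPMI 1640 with 5% FCS; infections in MT-2 cells. Viral RNA quantified by hybridization with biotinylated gag/pol capture probes on streptavidin plates and alkaline phosphatase-conjugated reporter probes; BH10 gag-pol in vitro transcripts serve as RNA standards.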

[1] = target: single-chain tethered dimer of HIV protease (Human immunodeficiency virus 1, UniProt P04585); assay: biochemical; assay type: biochemical; parameters: fused on or other part: A second copy of the same protease unit is joined to the first by a short peptide tether, giving one polypeptide
[2] = Human immunodeficiency virus 1, MT2, 48 h, Table 2d, HIV RNA assay, read-out: IC90
[3] = read-out: HPLC K1, Table 2d, HIV protease inhibition, HPLC method
[4] = Human immunodeficiency virus 1, MT2, 48 h, Table 2d, class symbols, read-out: IC90
[5] = read-out: HPLC K1, Table 2d, class symbols
[6] = Human immunodeficiency virus 1, MT2, Table 2q, read-out: IC90
[7] = Human immunodeficiency virus 1, MT2, Table 2i, read-out: IC90

| SMILES | melting point | IC90 (HIV-1 (RF) in MT-2 cells; [4]) | Ki [1, 5] | also measured |
| --- | --- | --- | --- | --- |
| O=C1Nc2ccc(CN3C(=O)N(Cc4ccc5c(c4)C(=O)C(=O)N5)C(Cc4ccccc4)C(O)C(O)C3Cc3ccccc3)cc2C1=O (stereo not drawn) [15DA] | 196 to 200 °C |  |  | IC90 (HIV-1 (RF) in MT-2 cells; [2]): < 10 µg/mL; Ki [1, 3]: < 10 nM |
| O=C1N(CCCCCO)C(Cc2ccccc2)C(O)C(O)C(Cc2ccccc2)N1Cc1ccc2ccccc2c1 (stereo not drawn) [Example 15VH] | 84.6 °C | < 10 µg/mL | < 10 nM |  |
| O=C(O)c1cccc(CN2C(=O)N(Cc3ccccc3)C(Cc3ccccc3)C(O)C(O)C2Cc2ccccc2)c1 (stereo not drawn) [15WP] | 122 to 124 °C | < 10 µg/mL | < 10 nM |  |
| NC(=O)c1cccc(CN2C(=O)N(Cc3ccc(CO)cc3)C(Cc3ccccc3)C(O)C(O)C2Cc2ccccc2)c1 (stereo not drawn) [15WT] | 123 to 124 °C | < 10 µg/mL | < 10 nM |  |
| OC1C(O)C(Cc2ccccc2)N(Cc2ccccc2)C(=S)N(Cc2ccccc2)C1Cc1ccccc1 (stereo not drawn) [Example 27A] | 92 to 94 °C |  |  | IC90 (HIV-1 (RF) in MT-2 cells; [6]): < 10 µg/mL; Ki ([1]; read-out: HPLC Ki, Table 2q): < 10 nM |
| CONC(=O)c1ccc(CN2C(=O)N(Cc3ccc(C(=O)NOC)cc3)C(Cc3ccccc3)C(O)C(O)C2Cc2ccccc2)cc1 (stereo not drawn) [10S] | 186 to 189 °C | < 10 µg/mL | < 10 nM |  |
| O=C1N(Cc2cccnc2)C(Cc2ccccc2)C(O)C(O)C(Cc2ccccc2)N1Cc1cccc(-c2cc[nH]n2)c1 (stereo not drawn) [Example 15BU] | 133 to 136 °C |  |  | IC90 (HIV-1 (RF) in MT-2 cells; [2]): < 10 µg/mL; Ki [1, 3]: < 10 nM |
| O=C1N(Cc2cccc(O)c2)C(Cc2ccccc2)C(O)C(O)C(Cc2ccccc2)N1Cc1ccc2ccccc2c1 (stereo not drawn) [10K] | 137 to 138 °C | < 10 µg/mL | < 10 nM |  |
| O=C1N(Cc2ccccc2)C(Cc2ccccc2)C(O)C(O)C(Cc2ccccc2)N1Cc1cccc(O)c1 (stereo not drawn) [11I] | 189 to 193 °C | < 10 µg/mL | < 10 nM |  |
| COC(=O)Oc1cccc(CN2C(=O)N(Cc3cccc(OC(=O)OC)c3)C(Cc3ccccc3)C(O)C(O)C2Cc2ccccc2)c1 (stereo not drawn) [Example 9G] | 146 to 147 °C | < 10 µg/mL | 10 to 1000 nM |  |
| Nc1cccc(CN2C(=O)N(Cc3cccc(-c4cc[nH]n4)c3)C(Cc3ccccc3)C(O)C(O)C2Cc2ccccc2)c1 (stereo not drawn) [Example 15CE] | 136 to 138 °C |  |  | IC90 (HIV-1 (RF) in MT-2 cells; [2]): < 10 µg/mL; Ki [1, 3]: < 10 nM |
| NC(=NO)c1cccc(CN2C(=O)N(CC3CC3)C(Cc3ccccc3)C(O)C(O)C2Cc2ccccc2)c1 (stereo not drawn) [15AF] | 183 to 186 °C |  |  | IC90 (HIV-1 (RF) in MT-2 cells; [2]): < 10 µg/mL; Ki [1, 3]: < 10 nM |
| O=C1N(Cc2cccc(-c3cc[nH]n3)c2)C(Cc2ccccc2)C(O)C(O)C(Cc2ccccc2)N1Cc1ccc(O)c(O)c1 (stereo not drawn) [Example 15CC] | 177 to 180 °C |  |  | IC90 (HIV-1 (RF) in MT-2 cells; [2]): < 10 µg/mL; Ki [1, 3]: < 10 nM |
| NC(=NO)c1cccc(CN2C(=O)N(Cc3ccc(O)cc3)C(Cc3ccccc3)C(O)C(O)C2Cc2ccccc2)c1 (stereo not drawn) [15AU] | 195 to 197 °C |  |  | IC90 (HIV-1 (RF) in MT-2 cells; [2]): < 10 µg/mL; Ki [1, 3]: < 10 nM |
| O=C1N(CC2CC2)C(Cc2ccc([N+](=O)[O-])cc2)C(O)C(O)C(Cc2ccc([N+](=O)[O-])cc2)N1CC1CC1 (stereo not drawn) [Example 20B] | 227.5 °C |  |  | IC90 (HIV-1 (RF) in MT-2 cells; [7]): < 10 µg/mL; Ki ([1]; read-out: HPLC Ki, Table 2i): < 10 nM |
| CNc1cccc(CN2C(=O)N(Cc3ccc4ccccc4c3)C(Cc3ccccc3)C(O)C(O)C2Cc2ccccc2)c1 (stereo not drawn) [15WZ] | 98 to 100 °C | < 10 µg/mL | < 10 nM |  |
| O=C1N(Cc2ccc3cn[nH]c3c2)C(Cc2ccccc2)C(O)C(O)C(Cc2ccccc2)N1Cc1ccc2cn[nH]c2c1 (stereo not drawn) [15CY] | 170 to 175 °C |  |  | IC90 (HIV-1 (RF) in MT-2 cells; [2]): < 10 µg/mL; Ki [1, 3]: < 10 nM |
| CNC(=O)c1cccc(CN2C(=O)N(Cc3cccc(CO)c3)C(Cc3ccccc3)C(O)C(O)C2Cc2ccccc2)c1 (stereo not drawn) [11M] | 107 to 109 °C | < 10 µg/mL | < 10 nM |  |
| O=C1N(Cc2cccc(-c3cnc[nH]3)c2)C(Cc2ccccc2)C(O)C(O)C(Cc2ccccc2)N1Cc1cccc(-c2cnc[nH]2)c1 (stereo not drawn) [Example 15BK] | 171 to 175 °C |  |  | IC90 (HIV-1 (RF) in MT-2 cells; [2]): < 10 µg/mL; Ki [1, 3]: < 10 nM |

| SMILES | melting point | IC90 (HIV-1 (RF) in MT-2 cells; [4]) | Ki [1, 5] | also measured |
| --- | --- | --- | --- | --- |
| CNC(=O)Oc1cccc(CN2C(=O)N(Cc3cccc(OC(=O)NC)c3)C(Cc3ccccc3)C(O)C(O)C2Cc2ccccc2)c1 (stereo not drawn) [Example 9M] | 150 °C (dec.) |  | 10 to 1000 nM | IC90 (HIV-1 (RF) in MT-2 cells; Human immunodeficiency virus 1, MT2, 48 h): < 10 µg/mL |
| O=C1N(Cc2cccc(C=NOCc3ccccc3)c2)C(Cc2ccccc2)C(O)C(O)C(Cc2ccccc2)N1Cc1cccc(C=NOCc2ccccc2)c1 (stereo not drawn) [Example 9D] | 170.5 to 171 °C | 10 to 100 µg/mL (≈ 12.9 to 129 µM) | 10 to 1000 nM |  |
| NC(=O)c1cccc(CN2C(=O)NC(Cc3ccccc3)C(O)C(O)C2Cc2ccccc2)c1 (stereo not drawn) [15WW] | 114 to 116 °C | < 10 µg/mL | < 10 nM |  |
| Nc1cccc(CN2C(=O)N(Cc3cccc(O)c3)C(Cc3ccccc3)C(O)C(O)C2Cc2ccccc2)c1 (stereo not drawn) [11Q] | 116 to 120 °C | < 10 µg/mL | < 10 nM |  |
| NC(=O)c1cccc(CN2C(=O)N(CC3CC3)C(Cc3ccccc3)C(O)C(O)C2Cc2ccccc2)c1 (stereo not drawn) [15WV] | 128 to 130 °C | < 10 µg/mL | < 10 nM |  |
| O=C(Nc1cccc(CN2C(=O)N(Cc3cccc(NC(=O)OCc4ccccc4)c3)C(Cc3ccccc3)C(O)C(O)C2Cc2ccccc2)c1)OCc1ccccc1 (stereo not drawn) [15E] | 190.7 °C | > 100 µg/mL | 10 to 1000 nM |  |
| CC(=O)c1cccc(CN2C(=O)N(Cc3cccc(Br)c3)C(Cc3ccccc3)C(O)C(O)C2Cc2ccccc2)c1 (stereo not drawn) [Example 9o] | 190 to 191 °C | < 10 µg/mL | 10 to 1000 nM |  |
| O=S1(=O)N(Cc2ccc(CO)cc2)C(Cc2ccccc2)C(O)C(O)C(Cc2ccccc2)N1Cc1ccc(CO)cc1 (stereo not drawn) [23B] | 189 to 190 °C |  |  | IC90 (HIV-1 (RF) in MT-2 cells; Human immunodeficiency virus 1, MT2, Table 2m, read-out: IC90): < 10 µg/mL; Ki ([1]; read-out: HPLC Ki, Table 2m): < 10 nM |
| O=C1N(CC2CC2)C(Cc2ccc([N+](=O)[O-])cc2)C(O)C(O)C(Cc2ccccc2[N+](=O)[O-])N1CC1CC1 (stereo not drawn) [Example 20A] | 209.8 °C |  |  | IC90 (HIV-1 (RF) in MT-2 cells; [7]): < 10 µg/mL; Ki ([1]; read-out: HPLC Ki, Table 2i): < 10 nM |
| O=C1N(Cc2ccc3[nH]ncc3c2)C(Cc2ccccc2)C(O)C(O)C(Cc2ccccc2)N1Cc1ccc2[nH]ncc2c1 (stereo not drawn) [15CX] | 165 to 170 °C |  |  | IC90 (HIV-1 (RF) in MT-2 cells; [2]): < 10 µg/mL; Ki [1, 3]: < 10 nM |
| OC1C(O)C(Cc2ccccc2)N(CC2CC2)C(=S)N(CC2CC2)C1Cc1ccccc1 (stereo not drawn) [Example 27B] | 84 to 86 °C |  |  | IC90 (HIV-1 (RF) in MT-2 cells; [6]): < 10 µg/mL; Ki ([1]; read-out: HPLC Ki, Table 2q): < 10 nM |
| COC(=O)c1cccc(CN2C(=O)N(Cc3cccc(-c4cc[nH]n4)c3)C(Cc3ccccc3)C(O)C(O)C2Cc2ccccc2)c1 (stereo not drawn) [Example 15BP] | 127 to 130 °C |  |  | IC90 (HIV-1 (RF) in MT-2 cells; [2]): < 10 µg/mL; Ki [1, 3]: < 10 nM |
| O=C1NC(Cc2ccccc2)C(O)C(O)C(Cc2ccccc2)N1Cc1ccc(CO)cc1 (stereo not drawn) [Example 11N] | 112 to 114 °C | < 10 µg/mL | < 10 nM |  |
| N=C(N)c1cccc(CN2C(=O)N(Cc3cccc(C(=N)N)c3)C(Cc3ccccc3)C(O)C(O)C2Cc2ccccc2)c1 (stereo not drawn) [11A] | 224 to 226 °C | > 100 µg/mL | 10 to 1000 nM |  |
| O=C1N(Cc2ccc(CO)cc2)C(Cc2ccccc2)C(O)C(O)C(Cc2ccccc2)N1Cc1cccc([N+](=O)[O-])c1 (stereo not drawn) [15J] | 92 °C | < 10 µg/mL | < 10 nM |  |
| Nc1ccc(CN2C(=O)N(Cc3ccc(N)cc3)C(Cc3ccccc3)C(O)C(O)C2Cc2ccccc2)cc1 (stereo not drawn) [15CQ] | 114 to 116 °C |  |  | IC90 (HIV-1 (RF) in MT-2 cells; [2]): < 10 µg/mL; Ki [1, 3]: < 10 nM |
| O=C1N(Cc2ccc(CO)cc2)C(Cc2ccccc2)C(O)C(O)C(Cc2ccccc2)N1Cc1cccc(O)c1 (stereo not drawn) [10o] | 141 to 144 °C | < 10 µg/mL | < 10 nM |  |
| CC(=O)c1cccc(CN2C(=O)N(Cc3cccc(C(C)=O)c3)C(Cc3ccccc3)C(O)C(O)C2Cc2ccccc2)c1 (stereo not drawn) [Example 9P] | 158 to 159 °C | < 10 µg/mL | 10 to 1000 nM |  |
